Source: patent publication US5447934A, “Anti-allergic thiadiazolo [4,3-a]pyridine derivatives” (Boehringer Mannheim GmbH, priority 1991, dated 1995)

tested on: passive sensitised guinea pig lung parenchyma strips; assay: Inhibition of the antigen-caused constriction of passive sensitised guinea pig lung parenchyma strips in vitro (organ bath); type: cell-based; settings: Cavia porcellus, 20 min; 10 μg/ml substance; ovalbumin 0.1 μg/ml; 20 min/37°C. preincubation; read-out: % Inhibition of the constriction of passive-sensitised lung parenchyms strips (guinea pigs) induced by ovalbumin
Procedure: Inhibition of the antigen-caused construction of passive sensitised guinea pig lung parenchyma strips in vitro (organ bath)
For the in vitro investigation of the compounds according to the invention, the inhibition of the antigen-caused constriction of passive sensitised guinea pig lung parenchyma strips was measured, as described in the following:
Pirbright white guinea pigs were stunned by a blow to the nape of the neck and exsanguinated. The lungs were rinsed substantially blood-free in situ with Krebs buffer, pH 7.4. Subsequently, the lungs were removed, cut up into strips (about […]) and the strips passively sensitised for one hour at room temperature with a 1.:50 dilution of a homologous anti-ovalbumin antiserum and then washed with Krebs buffer 1 x. The antiserum had been previously produced according to DAVIES (1) in guinea pigs of the same strain by repeated injection of ovalbumin (2 x crystallised) with addition of complete Freund's adjuvant. Until its used the antiserum was stored undiluted at -18° C. Subsequently, the lung strips were individually suspended on an isometric measurement sensor in 10 ml waterbaths with an initial tension of 1.2 g. Thereafter, the baths were filled with Krebs buffer and continuously gassed at 37° C. with O2 (95%) and CO2 (5%). Via an amplifier the constrictions of the lung strips were recorded on a recorder. After 30 minutes acclimatisation phase, histamine control spasms were produced for the recognition of the reactivity of the organ pieces washed, subsequently the best substance preincubated 37° C. for 20 minutes and thereafter the ovalbumin-caused constriction initiated. The inhibition action of the compounds according to the invention was expressed as percentage reduction of the constriction amplitude of the "samples with best substance" in relation to the "untreated control constrictions".

Compound	inhibition at 10 µg/mL [%]
c1ccc(N=c2snc3ccccn23)nc1 [Example 2a, 3-(2-pyridinylimino)-3H-[1,2,4]-thiadiazolo [4,3-a]-pyridine]	56
c1ccn2c(=Nc3ccncc3)snc2c1 [Example 2b, 3-(4-pyridinylimino)-3H-[1,2,4]-thiadiazolo [4,3-a]-pyridine]	80
COc1ccc(N=c2snc3ccccn23)cc1 [Example 2e, 3-(4-methoxyphenylimino)-3H-[1,2,4]-thiadiazolo-[4,3-a]pyridine]	48
Cc1cc(O)ccc1N=c1snc2ccccn12 [Example 2p, 3-(4-hydroxy-2-methyl-phenylimino)-3H-[1,2,4]-thiadiazolo [4,3-a]-pyridine]	62
c1ccn2c(=Nc3ccc4c(c3)OCO4)snc2c1 [Example 2q, 3-(3,4-methylenedioxyphenyl-imino)-3H-[1,2,4]-thiadia-zolo [4,3-a]-pyridine]	57
c1ccn2c(=NC3=NCCS3)snc2c1 [Example 2u, 3-(4,5-dihydrothiazol-2-ylimino)-3H-[1,2,4]-thia-diazolo [4,3-a]pyridine]	78
Clc1ccc2nsc(=Nc3ccncc3)n2c1 [Example 4]	61
CN(O)C(=O)Cc1ccc(N=c2snc3ccccn23)cc1 [Example 9, 4-(3H-[1,2,4]-Thiadiazole[4,3-a]-pyridin-3-ylideneamino)-phenylacetic acid N-methylhydroxamide]	61

same assay, conditions: Cavia porcellus, 20 min; 200 μg/ml substance (footnote +); ovalbumin 0.1 μg/ml; 20 min/37°C. preincubation; read-out: % Inhibition of the constriction of passive-sensitised lung parenchyms strips (guinea pigs) induced by ovalbumin

Compound	inhibition at 200 µg/mL [%]
Cn1c(=O)c2[nH]cnc2n(C)c1=O [aminophylline, reference compound]	26
